ChEMBL document CHEMBL5523747, “Discovery of a Series of Orally Bioavailable Androgen Receptor Degraders for the Treatment of Prostate Cancer” (J Med Chem, 2024)
Activity calls are given as the source filed them. No cut-off for these calls is given here.

Molecular target: T1, Protein cereblon/Androgen receptor (Homo sapiens, UniProt P10275+Q96SW2)
Test: PROTAC activity at AR/CRBN in human LNCaP cells assessed as protein degradation measured after 24 hrs incubation by imaging IF assay
Assay type: cell-based
Details: not given
Target sequence in this assay (P10275 whole entry): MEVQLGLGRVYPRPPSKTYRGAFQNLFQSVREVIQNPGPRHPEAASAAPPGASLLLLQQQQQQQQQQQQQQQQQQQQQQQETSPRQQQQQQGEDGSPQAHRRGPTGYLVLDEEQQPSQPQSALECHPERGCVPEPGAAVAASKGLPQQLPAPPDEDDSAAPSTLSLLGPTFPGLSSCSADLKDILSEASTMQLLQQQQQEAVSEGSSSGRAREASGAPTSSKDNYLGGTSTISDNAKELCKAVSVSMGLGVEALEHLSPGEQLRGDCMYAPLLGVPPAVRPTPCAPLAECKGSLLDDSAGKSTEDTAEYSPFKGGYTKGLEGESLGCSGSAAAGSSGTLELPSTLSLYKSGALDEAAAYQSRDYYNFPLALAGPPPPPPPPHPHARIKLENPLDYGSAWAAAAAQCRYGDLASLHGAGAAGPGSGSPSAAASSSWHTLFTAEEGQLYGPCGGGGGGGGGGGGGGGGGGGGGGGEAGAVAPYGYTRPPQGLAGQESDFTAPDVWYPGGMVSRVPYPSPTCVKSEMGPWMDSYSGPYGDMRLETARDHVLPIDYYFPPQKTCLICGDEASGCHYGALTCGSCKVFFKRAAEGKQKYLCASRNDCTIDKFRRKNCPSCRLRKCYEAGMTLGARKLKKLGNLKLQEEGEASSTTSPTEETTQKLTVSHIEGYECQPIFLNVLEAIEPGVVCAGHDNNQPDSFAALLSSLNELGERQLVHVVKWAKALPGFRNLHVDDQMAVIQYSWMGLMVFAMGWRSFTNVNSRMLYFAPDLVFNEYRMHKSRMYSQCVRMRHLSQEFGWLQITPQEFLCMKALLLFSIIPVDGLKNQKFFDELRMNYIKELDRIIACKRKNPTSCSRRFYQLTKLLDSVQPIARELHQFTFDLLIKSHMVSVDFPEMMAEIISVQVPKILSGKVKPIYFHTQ
Target sequence in this assay (Q96SW2 whole entry): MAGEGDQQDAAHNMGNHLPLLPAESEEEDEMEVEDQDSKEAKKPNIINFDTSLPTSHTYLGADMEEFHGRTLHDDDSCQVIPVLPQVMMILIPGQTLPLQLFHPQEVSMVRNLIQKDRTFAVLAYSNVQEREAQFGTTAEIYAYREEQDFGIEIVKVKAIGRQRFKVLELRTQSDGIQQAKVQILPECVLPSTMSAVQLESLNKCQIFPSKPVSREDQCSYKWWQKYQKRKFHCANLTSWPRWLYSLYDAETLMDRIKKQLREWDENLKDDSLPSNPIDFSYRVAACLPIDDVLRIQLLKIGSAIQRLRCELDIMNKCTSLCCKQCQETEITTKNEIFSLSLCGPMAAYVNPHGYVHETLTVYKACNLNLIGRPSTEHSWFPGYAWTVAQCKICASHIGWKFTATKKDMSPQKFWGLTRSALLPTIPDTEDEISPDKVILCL

Structure (SMILES)	DC50 [nM]
N#Cc1ccc(N2CCC(c3ccc(N4CCC(CN5CCN(c6ccc7c(c6)CN(C6CCC(=O)NC6=O)C7=O)CC5)CC4)cc3)CC2)cc1C(F)(F)F (configuration not stated)	18
COc1cc(N2CCN(CC3CCN(c4cc(F)c(C5CCN(c6ccc(C#N)c(C(F)(F)F)c6F)CC5)c(F)c4)CC3)CC2)cc2c1C(=O)N(C1CCC(=O)NC1=O)C2 (configuration not stated)	18

Molecular target: T1, Protein cereblon/Androgen receptor
Test: PROTAC activity at AR/CRBN in human LNCaP cells assessed as maximal protein degradation measured after 24 hrs incubation by imaging IF assay relative to control
Assay type: cell-based
Details: not given
Target sequence in this assay (P10275 whole entry, looked up): as the sequence (P10275 whole entry) above
Target sequence in this assay (Q96SW2 whole entry, looked up): as the sequence (Q96SW2 whole entry) above

Structure (SMILES)	Emax [%]
N#Cc1ccc(N2CCC(c3ccc(N4CCC(CN5CCN(c6ccc7c(c6)CN(C6CCC(=O)NC6=O)C7=O)CC5)CC4)cc3)CC2)cc1C(F)(F)F (configuration not stated)	85
COc1cc(N2CCN(CC3CCN(c4cc(F)c(C5CCN(c6ccc(C#N)c(C(F)(F)F)c6F)CC5)c(F)c4)CC3)CC2)cc2c1C(=O)N(C1CCC(=O)NC1=O)C2 (configuration not stated)	100

Test system: not listed separately
Test: Metabolic stability in human liver microsomes assessed as intrinsic clearance
Assay type: ADME, Microsome
Details: read-out: CLH

Structure (SMILES)	microsomal CLint [µL/min/mg]
N#Cc1ccc(N2CCC(c3ccc(N4CCC(CN5CCN(c6ccc7c(c6)CN(C6CCC(=O)NC6=O)C7=O)CC5)CC4)cc3)CC2)cc1C(F)(F)F (configuration not stated)	3

Molecular target: von Hippel-Lindau disease tumor suppressor/Androgen receptor (Homo sapiens) (UniProt P10275+P40337)
Sequence (P10275 whole entry, looked up): as the sequence (P10275 whole entry) above
Sequence (P40337 whole entry, looked up): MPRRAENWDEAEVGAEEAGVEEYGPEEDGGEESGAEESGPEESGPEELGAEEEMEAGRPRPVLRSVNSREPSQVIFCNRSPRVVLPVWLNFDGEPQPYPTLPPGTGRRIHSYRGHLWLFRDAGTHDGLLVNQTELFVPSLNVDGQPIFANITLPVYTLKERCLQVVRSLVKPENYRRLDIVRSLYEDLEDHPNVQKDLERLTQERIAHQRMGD
Test: PROTAC activity at AR/VHL in human LNCaP cells assessed as maximal protein degradation measured after 24 hrs incubation by imaging IF assay relative to control
Assay type: cell-based
Details: not given

Emax [%]	Structure (SMILES)
100	Cc1ncsc1-c1ccc([C@H](C)NC(=O)[C@@H]2C[C@@H](O)CN2C(=O)[C@@H](NC(=O)COCCCCCNc2ccc(C(=O)N[C@H]3C(C)(C)[C@H](Oc4ccc(C#N)c(Cl)c4)C3(C)C)cc2)C(C)(C)C)cc1

Molecular target: Protein cereblon/Androgen receptor (Homo sapiens, UniProt P10275+Q96SW2, L702H)
Sequence (P10275 whole entry L702H, stated change not applied): as the sequence (P10275 whole entry) above, with L702H counted along it
Sequence (Q96SW2 whole entry, stated change not applied): as the sequence (Q96SW2 whole entry) above
Test: PROTAC activity at CRBN/AR L702H mutant (unknown origin) expressed in human LNCaP cells assessed as protein degradation measured after 24 hrs incubation by imaging IF assay
Assay type: cell-based
Details: not given

Structure (SMILES)	DC50 [nM]
N#Cc1ccc(N2CCC(c3ccc(N4CCC(CN5CCN(c6ccc7c(c6)CN(C6CCC(=O)NC6=O)C7=O)CC5)CC4)cc3)CC2)cc1C(F)(F)F (configuration not stated)	> 3000
COc1cc(N2CCN(CC3CCN(c4cc(F)c(C5CCN(c6ccc(C#N)c(C(F)(F)F)c6F)CC5)c(F)c4)CC3)CC2)cc2c1C(=O)N(C1CCC(=O)NC1=O)C2 (configuration not stated)	633

Test system: Protein cereblon/Androgen receptor (Homo sapiens), P10275+Q96SW2 [L702H]
Test: PROTAC activity at CRBN/AR L702H mutant (unknown origin) expressed in human LNCaP cells assessed as maximal protein degradation measured after 24 hrs incubation by imaging IF assay relative to control
Assay type: cell-based
Details: not given

Structure (SMILES)	Emax [%]
COc1cc(N2CCN(CC3CCN(c4cc(F)c(C5CCN(c6ccc(C#N)c(C(F)(F)F)c6F)CC5)c(F)c4)CC3)CC2)cc2c1C(=O)N(C1CCC(=O)NC1=O)C2 (configuration not stated)	80

Test system: not listed separately
Test: Volume of distribution at steady state in CD-1 mouse at 1 mg/kg, po and 0.5 mg/kg, iv
Assay type: ADME, organism-based
Details: in vivo

Structure (SMILES)	Vdss [L/kg]
N#Cc1ccc(N2CCC(c3ccc(N4CCC(CN5CCN(c6ccc7c(c6)CN(C6CCC(=O)NC6=O)C7=O)CC5)CC4)cc3)CC2)cc1C(F)(F)F (configuration not stated)	4.5
COc1cc(N2CCN(CC3CCN(c4cc(F)c(C5CCN(c6ccc(C#N)c(C(F)(F)F)c6F)CC5)c(F)c4)CC3)CC2)cc2c1C(=O)N(C1CCC(=O)NC1=O)C2 (configuration not stated)	3.6

Test system: not listed separately
Test: Half life in CD-1 mouse at 1 mg/kg, po and 0.5 mg/kg, iv
Assay type: ADME, organism-based
Details: in vivo

Structure (SMILES)	half-life [h]
N#Cc1ccc(N2CCC(c3ccc(N4CCC(CN5CCN(c6ccc7c(c6)CN(C6CCC(=O)NC6=O)C7=O)CC5)CC4)cc3)CC2)cc1C(F)(F)F (configuration not stated)	19
COc1cc(N2CCN(CC3CCN(c4cc(F)c(C5CCN(c6ccc(C#N)c(C(F)(F)F)c6F)CC5)c(F)c4)CC3)CC2)cc2c1C(=O)N(C1CCC(=O)NC1=O)C2 (configuration not stated)	41

Test system: not listed separately
Test: Oral bioavailability in CD-1 mouse at 1 mg/kg
Assay type: ADME, organism-based
Details: in vivo

Structure (SMILES)	bioavailability [%]
N#Cc1ccc(N2CCC(c3ccc(N4CCC(CN5CCN(c6ccc7c(c6)CN(C6CCC(=O)NC6=O)C7=O)CC5)CC4)cc3)CC2)cc1C(F)(F)F (configuration not stated)	46
COc1cc(N2CCN(CC3CCN(c4cc(F)c(C5CCN(c6ccc(C#N)c(C(F)(F)F)c6F)CC5)c(F)c4)CC3)CC2)cc2c1C(=O)N(C1CCC(=O)NC1=O)C2 (configuration not stated)	30

Test system: LNCaP C4-2
Test: In vivo degradation of AR in human LNCaP C4-2 cells xenografted in mouse model assessed as tumor growth inhibition at 50 mg/kg, po once daily measured after 28 days relative to control
Assay type: functional, organism-based
Details: time 28.0 day

Structure (SMILES)	Activity
CNC(=O)c1ccc(N2C(=S)N(c3ccc(C#N)c(C(F)(F)F)c3)C(=O)C2(C)C)cc1F	Active

Test system: LNCaP C4-2
Test: In vivo degradation of AR in human LNCaP C4-2 cells xenografted in mouse model assessed as tumor growth inhibition at 10 mg/kg, po once daily measured after 28 days relative to control
Assay type: functional, organism-based
Details: time 28.0 day

Structure (SMILES)	Activity
N#Cc1ccc(O[C@H]2CC[C@H](NC(=O)c3ccc(N4CCC(CN5CCN(c6cc7c(cc6F)C(=O)N(C6CCC(=O)NC6=O)C7=O)CC5)CC4)nn3)CC2)cc1Cl (some centres not stated)	Active
